These are literature values, as cited in article PMC8764166, “Phenolic-Rich Plant Extracts With Antimicrobial Activity: An Alternative to Food Preservatives and Biocides?” (Frontiers in Microbiology, 2022).

Structures are written as SMILES. Converted amounts (≈) assume the structure as drawn. Like-named read-outs stand apart in the source and are kept apart here.

Series [1] concerns S. aureus. More on the design: method as in Wu et al., 2016. As to conditions: ref Wu et al., 2016.
Series [2] relates to transmembrane peptidase sortase A, SrtA. Also noted: method as in Wu et al. (2019). As to conditions: ref Wu et al. (2019).
The test system of series [3] is S. aureus. More on the design: method as in Wu et al., 2016, 2019. As to conditions: ref Wu et al., 2016, 2019.
Series [4] relates to B. subtilis. More on the design: method as in Wu et al., 2020. As to conditions: ref Wu et al., 2020.
The test system of series [5] is Escherichia coli.
Series [6] concerns L. monocytogenes. More on the design: method as in Pernin et al., 2019. As to conditions: ref Pernin et al., 2019.
Series [7] has as its system Staphylococcus aureus. As to conditions: ref An et al., 2021.
Series [8] relates to Pseudomonas aeruginosa. As to conditions: ref An et al., 2021.
Series [9] concerns Bacillus subtilis. More on the design: method as in An et al., 2021. As to conditions: ref An et al., 2021.
Series [10] deals with Enterococcus. faecium. More on the design: method as in An et al., 2021. As to conditions: ref An et al., 2021.
Series [11] has as its system Three S. enterica strains. More on the design: method as in Plumed-Ferrer et al., 2013. As to conditions: ref Plumed-Ferrer et al., 2013.
Series [12] has as its system DNA gyrase. More on the design: method as in Plaper et al., 2003. As to conditions: ref Plaper et al., 2003.
Series [13] deals with Bacillus cereus. More on the design: method as in Serra et al. (2008). As to conditions: 20 mg·L^−1 quercetin, in grape extract or as solution; ref Serra et al. (2008).
Series [14] deals with B. subtilis, E. coli, S. aureus, and S. typhimurium. Also noted: method as in Dinesh Kumar et al., 2016. As to conditions: all test bacteria; ref Dinesh Kumar et al., 2016.
Series [15] deals with biofilms with undesirable food spoiling or foodborne pathogenic microorganisms. Also noted: method as in the references listed per substance. As to conditions: the references listed per substance.
For series [16], the system named is Salmonella typhimurium. As to conditions: ref Phadungkit and Luanratana, 2006.

As for `O=C(/C=C/c1ccc(O)cc1)OC1C(O)C(O)CC(O)(C(=O)O)C1O` (stereo not drawn) [3-p-trans-coumaroyl-2-hydroxyquinic acid], in series [1], the cytoplasmic membrane damage entry was “– interaction with membrane lipid and protein, damage of cytoplasmic membrane with a significant membrane hyperpolarization, a loss of membrane integrity and severe morphological changes”. Further, the “sortase A (SrtA) inhibition” value in series [2] was “inhibiting the transmembrane peptidase sortase A, SrtA”. The “S. aureus biofilm formation” value is recorded as “– inhibits the biofilm formation of S. aureus by affecting the initial attachment phase of biofilm development” in series [3] and “not only inhibits S. aureus biofilm formation, but also the attachment phase” in series [3] (listed as coumaroyl-2-hydroxyquinic acid).
Consider `O=C(/C=C/c1ccc(O)c(O)c1)O[C@@H]1C[C@](O)(C(=O)O)C[C@@H](O)[C@H]1O` [Chlorogenic acid], for which the “intracellular metabolism (metabolomics)” value in series [4] is “– induction of the intracellular metabolic imbalance of the tricarboxylic acid cycle and glycolysis, leading to metabolic disorder and death”. The “MIC against E. coli” value in [5] (ref Adamczak et al., 2020) is recorded as “E. coli 0.5 g·L^−1”. In addition, the “mechanism of action against L. monocytogenes” value in [6] is “decrease in extracellular pH”.
Turning to `O=c1oc2c(O)c(O)cc3c(=O)oc4c(O)c(O)cc1c4c23` [Ellagic acid], in [7], the “MIC against S. aureus” value was 250 µg/mL (≈ 827 µM). In addition, the “MIC against P. aeruginosa” value in series [8] is 500 µg/mL (≈ 1650 µM). Further, the “MIC against Bacillus subtilis” value in [9] is 500 µg/mL (≈ 1650 µM). Besides, the “MIC against Enterococcus. faecium” value in series [10] was 250 µg/mL (≈ 827 µM). Also, the “MIC against E. coli” value in series [5] (ref An et al., 2021) was 250 µg/mL (≈ 827 µM).
With `Oc1cc(O)cc(/C=C/c2ccccc2)c1` [Pinosylvin], the outer membrane destabilization result in [11] is “– destabilization of the outer membrane of Salmonella cells partially abolished by MgCl2 addition indicating thus that part of its activity is related to the chelation of outer membrane stabilizing divalent cations, such as Mg^2+”.
As to `O=c1c(O)c(-c2ccc(O)c(O)c2)oc2cc(O)cc(O)c12` [Quercetin], the DNA gyrase inhibition result in series [12] was “– DNA gyrase inhibition either by interaction of quercetin with DNA or with ATP binding site of gyrase”. The “growth of Bacillus cereus” value in series [13] was “totally inhibited the growth of Bacillus cereus unlike a 20 mg·L^−1 quercetin solution”. Also, the “time after which antibacterial effect is lost” value in [14] is 2 to 9 h. Besides, the “MIC against E. coli” value in series [5] (ref Adamczak et al., 2020) is recorded as “E. coli 0.5 g·L^−1”. For the same compound, the activity against biofilms result in series [15] was “inhibit formation or to eradicate biofilms”. In addition, the “MIC against S. typhimurium” value in [16] is on record as “S. typhimurium 15.6 mg·L^−1”.
